Source: patent publication US20240108006A1, “PESTICIDALLY ACTIVE HETEROAROMATIC COMPOUNDS” (SYNGENTA CROP PROTECTION AG, priority 2021, published 2024)

Experiments:
Plutella xylostella = experiment: Example B8: Plutella xylostella (diamond back moth), artificial diet 24-well, eggs; assay type: in vivo; details: 192 h, application rate of 200 ppm, 8 days after infestation, read-out: effect in at least one of the two categories (mortality or growth inhibition)
Protocol: Example B8: Plutella xylostella (Diamond Back Moth)
24-well microtiter plates with artificial diet were treated with aqueous test solutions prepared from 10,000 ppm DMSO stock solutions by pipetting. After drying, Plutella eggs were pipetted through a plastic stencil onto a gel blotting paper and the plate was closed with it. The samples were assessed for mortality and growth inhibition in comparison to untreated samples 8 days after infestation.
The following compounds gave an effect of at least 80% in at least one of the two categories (mortality or growth inhibition) at an application rate of 200 ppm: […]

Chilo suppressalis = experiment: Example B1: Chilo suppressalis (striped rice stemborer), artificial diet, L2 larvae; assay type: in vivo; details: 144 h, application rate of 200 ppm, 6 days after infestation, read-out: control in at least one of the three categories (mortality, anti-feedant effect, or growth inhibition)
Protocol: Example B1: Chilo suppressalis (Striped Rice Stemborer)
24-well microtiter plates with artificial diet were treated with aqueous test solutions prepared from 10,000 ppm DMSO stock solutions by pipetting. After drying, the plates were infested with L2 larvae (6-8 per well). The samples were assessed for mortality, anti-feeding effect, and growth inhibition in comparison to untreated samples 6 days after infestation. Control of Chilo suppressalis by a test sample is given when at least one of the categories mortality, anti-feedant effect, and growth inhibition is higher than the untreated sample.

| Structure (SMILES) | percent effect (mortality or growth inhibition) at 200 ppm (Plutella xylostella) [%] | percent control (mortality, anti-feedant effect or growth inhibition) at 200 ppm (Chilo suppressalis) [%] |
| --- | --- | --- |
| C[C@H](NC(=O)Nc1cc(Cl)ccc1C(F)(F)F)c1ncnn1-c1ncccn1 [Example P12, 1-[5-chloro-2-(trifluoromethyl)phenyl]-3-[(1S)-1-(2-pyrimidin-2-yl-1,2,4-triazol-3-yl)ethyl]urea] | ≥ 80 | – |
| C[C@H](NC(=O)Nc1nc(C2CC2)cc(C2CC2)n1)c1ncnn1-c1ncccn1 [Example P33, 1-(4,6-dicyclopropylpyrimidin-2-yl)-3-[(1S)-1-(2-pyrimidin-2-yl-1,2,4-triazol-3-yl)ethyl]urea] | ≥ 80 | – |
| C[C@H](NC(=O)Nc1ccc(F)cc1C(C)(F)F)c1ncnn1-c1ncccn1 [Example P45, 1-[2-(1,1-difluoroethyl)-4-fluoro-phenyl]-3-[(1S)-1-(2-pyrimidin-2-yl-1,2,4-triazol-3-yl)ethyl]urea] | – | ≥ 80 |
| Cc1cc(Br)ccc1NC(=O)N[C@@H](C)c1ncnn1-c1ncccn1 [Example P106, 1-(4-bromo-2-methyl-phenyl)-3-[(1S)-1-(2-pyrimidin-2-yl-1,2,4-triazol-3-yl)ethyl]urea] | – | ≥ 80 |
| C[C@H](NC(=O)Nc1ccc(F)cc1C(F)(F)F)c1ncnn1-c1ncccn1 [Example P116, 1-[4-fluoro-2-(trifluoromethyl)phenyl]-3-[(1S)-1-(2-pyrimidin-2-yl-1,2,4-triazol-3-yl)ethyl]urea] | – | ≥ 80 |
| C[C@H](NC(=O)Nc1cc(OCC#N)c(Cl)cc1Cl)c1ncnn1-c1ncccn1 [Example P161, 1-[2,4-dichloro-5-(cyanomethoxy)phenyl]-3-[(1S)-1-(2-pyrimidin-2-yl-1,2,4-triazol-3-yl)ethyl]urea] | ≥ 80 | – |
| CC(NC(=O)N1CCc2cc(C(F)(F)F)ncc21)c1ncnn1-c1ccc(C#N)cn1 (stereo not drawn) [Example P171, N-[1-[2-(5-cyano-2-pyridyl)-1,2,4-triazol-3-yl]ethyl]-5-(trifluoromethyl)-2,3-dihydropyrrolo[2,3-c]pyridine-1-carboxamide] | ≥ 80 | – |
| C[C@H](NC(=O)Nc1cc(C(F)(F)F)c(Cl)cc1Cl)c1ncnn1-c1ccc(C(=O)N2CCOCC2)cn1 [Example P175, 1-[2,4-dichloro-5-(trifluoromethyl)phenyl]-3-[(1S)-1-[2-[5-(morpholine-4-carbonyl)-2-pyridyl]-1,2,4-triazol-3-yl]ethyl]urea] | ≥ 80 | – |
| COc1cc(S(C)(=O)=O)c(NC(=O)N[C@@H](C)c2ncnn2-c2ncccn2)cc1Cl [Example P192, 1-(5-chloro-4-methoxy-2-methylsulfonyl-phenyl)-3-[(1S)-1-(2-pyrimidin-2-yl-1,2,4-triazol-3-yl)ethyl]urea] | – | ≥ 80 |
| C[C@H](NC(=O)Nc1cc(Cl)c(OC(F)(F)C(F)C(F)(F)F)cc1Cl)c1ncnn1-c1ncccn1 (stereo partly drawn) [Example P211, 1-[2,5-dichloro-4-(1,1,2,3,3,3-hexafluoropropoxy)phenyl]-3-[(1S)-1-(2-pyrimidin-2-yl-1,2,4-triazol-3-yl)ethyl]urea] | ≥ 80 | – |
| Cc1cc(C)c(N2CCCC2=O)cc1NC(=O)N[C@@H](C)c1ncnn1-c1ncccn1 [Example P212, 1-[2,4-dimethyl-5-(2-oxopyrrolidin-1-yl)phenyl]-3-[(1S)-1-(2-pyrimidin-2-yl-1,2,4-triazol-3-yl)ethyl]urea] | – | ≥ 80 |
| COC(=O)c1cc(NC(=O)N[C@@H](C)c2ncnn2-c2ncccn2)c(F)cc1Br [Example P228, methyl 2-bromo-4-fluoro-5-[[(1S)-1-(2-pyrimidin-2-yl-1,2,4-triazol-3-yl)ethyl]carbamoylamino]benzoate] | ≥ 80 | – |
| CC(=O)c1cc(NC(=O)N[C@@H](C)c2ncnn2-c2ncccn2)c(Cl)cc1Cl [Example P229, 1-(5-acetyl-2,4-dichloro-phenyl)-3-[(1S)-1-(2-pyrimidin-2-yl-1,2,4-triazol-3-yl)ethyl]urea] | ≥ 80 | – |
| COc1cc(NC(=O)N[C@@H](C)c2ncnn2-c2ncccn2)c(Br)cc1Cl [Example P294, 1-(2-bromo-4-chloro-5-methoxy-phenyl)-3-[(1S)-1-(2-pyrimidin-2-yl-1,2,4-triazol-3-yl)ethyl]urea] | – | ≥ 80 |
| Cc1cc(NC(=O)N[C@@H](C)c2ncnn2-c2ncccn2)c(C)cc1F [Example P295, 1-(4-fluoro-2,5-dimethyl-phenyl)-3-[(1S)-1-(2-pyrimidin-2-yl-1,2,4-triazol-3-yl)ethyl]urea] | – | ≥ 80 |
| Cc1cc(F)c(C#N)cc1NC(=O)N[C@@H](C)c1ncnn1-c1ncccn1 [Example P296, 1-(5-cyano-4-fluoro-2-methyl-phenyl)-3-[(1S)-1-(2-pyrimidin-2-yl-1,2,4-triazol-3-yl)ethyl]urea] | – | ≥ 80 |
| Cc1cc(F)c(C(F)(F)F)cc1NC(=O)N[C@@H](C)c1ncnn1-c1ncccn1 [Example P297, 1-[4-fluoro-2-methyl-5-(trifluoromethyl)phenyl]-3-[(1S)-1-(2-pyrimidin-2-yl-1,2,4-triazol-3-yl)ethyl]urea] | – | ≥ 80 |
| C[C@H](NC(=O)Nc1cc2c(cc1Br)CCC2)c1ncnn1-c1ncccn1 [Example P303, 1-(6-bromoindan-5-yl)-3-[(1S)-1-(2-pyrimidin-2-yl-1,2,4-triazol-3-yl)ethyl]urea] | – | ≥ 80 |
| C[C@@H](c1ncnn1-c1ncccn1)N1CCCN(c2cc(OC(F)(F)C(F)F)c(Cl)cc2Cl)C1=O [Example P311, 1-[2,4-dichloro-5-(1,1,2,2-tetrafluoroethoxy)phenyl]-3-[(1S)-1-(2-pyrimidin-2-yl-1,2,4-triazol-3-yl)ethyl]hexahydropyrimidin-2-one] | – | ≥ 80 |
| Cc1cc(Cl)ncc1NC(=O)N[C@@H](C)c1ncnn1-c1ncccn1 [Example P318, 1-(6-chloro-4-methyl-3-pyridyl)-3-[(1S)-1-(2-pyrimidin-2-yl-1,2,4-triazol-3-yl)ethyl]urea] | – | ≥ 80 |
| C[C@H](NC(=O)Nc1cc2c(cc1Br)CCC(=O)N2)c1ncnn1-c1ncccn1 [Example P322, 1-(6-bromo-2-oxo-3,4-dihydro-1H-quinolin-7-yl)-3-[(1S)-1-(2-pyrimidin-2-yl-1,2,4-triazol-3-yl)ethyl]urea] | – | ≥ 80 |
| Cc1cc([N+](=O)[O-])c(C)cc1NC(=O)N[C@@H](C)c1ncnn1-c1ncccn1 [Example P323, 1-(2,5-dimethyl-4-nitro-phenyl)-3-[(1S)-1-(2-pyrimidin-2-yl-1,2,4-triazol-3-yl)ethyl]urea] | – | ≥ 80 |
| C[C@H](NC(=O)Nc1cc(F)c(Br)cc1F)c1ncnn1-c1ncccn1 [Example P339, 1-(4-bromo-2,5-difluoro-phenyl)-3-[(1S)-1-(2-pyrimidin-2-yl-1,2,4-triazol-3-yl)ethyl]urea] | – | ≥ 80 |
| Cc1cc(Br)ncc1NC(=O)N[C@@H](C)c1ncnn1-c1ncccn1 [Example P342, 1-(6-bromo-4-methyl-3-pyridyl)-3-[(1S)-1-(2-pyrimidin-2-yl-1,2,4-triazol-3-yl)ethyl]urea] | – | ≥ 80 |
| Cc1cc2c(cc1NC(=O)N[C@@H](C)c1ncnn1-c1ncccn1)OCO2 [Example P344, 1-(6-methyl-1,3-benzodioxol-5-yl)-3-[(1S)-1-(2-pyrimidin-2-yl-1,2,4-triazol-3-yl)ethyl]urea] | – | ≥ 80 |
| C[C@H](NC(=O)Nc1cc(Br)c(F)cc1I)c1ncnn1-c1ncccn1 [Example P371, 1-(5-bromo-4-fluoro-2-iodo-phenyl)-3-[(1S)-1-(2-pyrimidin-2-yl-1,2,4-triazol-3-yl)ethyl]urea] | – | ≥ 80 |
| COc1cc(C)c(NC(=O)N[C@@H](C)c2ncnn2-c2ncccn2)cc1F [Example P378, 1-(5-fluoro-4-methoxy-2-methyl-phenyl)-3-[(1S)-1-(2-pyrimidin-2-yl-1,2,4-triazol-3-yl)ethyl]urea] | – | ≥ 80 |
| C[C@H](NC(=O)Nc1cc(Cl)c(F)cc1F)c1ncnn1-c1ncccn1 [Example P379, 1-(5-chloro-2,4-difluoro-phenyl)-3-[(1S)-1-(2-pyrimidin-2-yl-1,2,4-triazol-3-yl)ethyl]urea] | – | ≥ 80 |
| Cc1cc(NC(=O)N[C@@H](C)c2ncnn2-c2ncccn2)c(Cl)cc1F [Example P385, 1-(2-chloro-4-fluoro-5-methyl-phenyl)-3-[(1S)-1-(2-pyrimidin-2-yl-1,2,4-triazol-3-yl)ethyl]urea] | – | ≥ 80 |
| C[C@H](NC(=O)Nc1cc(C(F)(F)F)c(Cl)cc1F)c1ncnn1-c1ncccn1 [Example P393, 1-[4-chloro-2-fluoro-5-(trifluoromethyl)phenyl]-3-[(1S)-1-(2-pyrimidin-2-yl-1,2,4-triazol-3-yl)ethyl]urea] | – | ≥ 80 |
